Assay results from PubChem BioAssay (NCI).
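All cell lines were grown in 96-well plates and treated with compound for 48 hours. Here, GI50 denotes the concentration required for 50% inhibition of growth. TGI: total growth inhibition.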

Key:
Assay in all cases: DTP human tumour cell line panel, 48 h
OVCAR-8 ovarian = test system: OVCAR-8 ovarian
SF-539 CNS = test system: SF-539 CNS
TK-10 renal = test system: TK-10 renal
U251 CNS = test system: U251 CNS
MDA-MB-435 = test system: MDA-MB-435
A498 renal = test system: A498 renal
CAKI-1 renal = test system: CAKI-1 renal
CCRF-CEM leukemia = test system: CCRF-CEM leukemia
NCI-H226 lung = test system: NCI-H226 lung
KM12 colon = test system: KM12 colon
RPMI-8226 leukemia = test system: RPMI-8226 leukemia
HOP-92 NSCLC = test system: HOP-92 NSCLC
NCI-H522 lung = test system: NCI-H522 lung
NCI-H460 lung = test system: NCI-H460 lung
MALME-3M melanoma = test system: MALME-3M melanoma
RXF 393 renal = test system: RXF 393 renal
SK-MEL-28 melanoma = test system: SK-MEL-28 melanoma
EKVX NSCLC = test system: EKVX NSCLC
K-562 leukemia = test system: K-562 leukemia
HT29 colon = test system: HT29 colon
IGROV1 ovarian = test system: IGROV1 ovarian
OVCAR-5 ovarian = test system: OVCAR-5 ovarian
HCT-15 colon = test system: HCT-15 colon
MCF7 breast = test system: MCF7 breast
COLO 205 colon = test system: COLO 205 colon
T-47D breast = test system: T-47D breast
A549 NSCLC = test system: A549 NSCLC
HCT-116 colon = test system: HCT-116 colon
OVCAR-3 ovarian = test system: OVCAR-3 ovarian
SNB-19 CNS = test system: SNB-19 CNS
SK-MEL-2 melanoma = test system: SK-MEL-2 melanoma
UO-31 renal = test system: UO-31 renal
786-0 renal = test system: 786-0 renal
SW-620 colon = test system: SW-620 colon
NCI-H23 lung = test system: NCI-H23 lung
UACC-62 melanoma = test system: UACC-62 melanoma
MDA-MB-231 breast = test system: MDA-MB-231 breast
HS 578T breast = test system: HS 578T breast
SK-MEL-5 melanoma = test system: SK-MEL-5 melanoma
SR leukemia = test system: SR leukemia
LOX IMVI melanoma = test system: LOX IMVI melanoma
SF-268 CNS = test system: SF-268 CNS
SK-OV-3 ovarian = test system: SK-OV-3 ovarian
HOP-62 NSCLC = test system: HOP-62 NSCLC
UACC-257 melanoma = test system: UACC-257 melanoma
MDA-MB-468 breast = test system: MDA-MB-468 breast
HL-60(TB) leukemia = test system: HL-60(TB) leukemia
BT-549 breast = test system: BT-549 breast
OVCAR-4 ovarian = test system: OVCAR-4 ovarian
PC-3 prostate = test system: PC-3 prostate
SN12C renal = test system: SN12C renal
ACHN renal = test system: ACHN renal
HCC-2998 colon = test system: HCC-2998 colon
M14 melanoma = test system: M14 melanoma
DU-145 prostate = test system: DU-145 prostate
SNB-75 CNS = test system: SNB-75 CNS
MOLT-4 leukemia = test system: MOLT-4 leukemia
SF-295 CNS = test system: SF-295 CNS

Cc1cc(C2(c3cc(C)c(OCC(O)CNc4c(C)n(C)n(-c5ccccc5)c4=O)cc3C(C)C)OC(=O)c3ccccc32)c(C(C)C)cc1OCC(O)CNc1c(C)n(C)n(-c2ccccc2)c1=O (stereo not drawn)
GI50 (OVCAR-8 ovarian): 27 µM
TGI (OVCAR-8 ovarian): > 100 µM
GI50 (SF-539 CNS): 18.6 µM
TGI (SF-539 CNS): 52.9 µM
GI50 (TK-10 renal): 49.3 µM
TGI (TK-10 renal): > 100 µM
GI50 (U251 CNS): 25.9 µM
TGI (U251 CNS): 99.6 µM
GI50 (MDA-MB-435): 14.7 µM
TGI (MDA-MB-435): 38.3 µM
GI50 (A498 renal): 29.1 µM
TGI (A498 renal): > 100 µM
GI50 (CAKI-1 renal): 4.11 µM
TGI (CAKI-1 renal): > 100 µM
GI50 (CCRF-CEM leukemia): 15.5 µM
TGI (CCRF-CEM leukemia): > 100 µM
GI50 (NCI-H226 lung): 15.7 µM
TGI (NCI-H226 lung): > 100 µM
GI50 (KM12 colon): 25.8 µM
TGI (KM12 colon): > 100 µM
GI50 (RPMI-8226 leukemia): 13.9 µM
TGI (RPMI-8226 leukemia): 84.6 µM
GI50 (HOP-92 NSCLC): 4.49 µM
TGI (HOP-92 NSCLC): 49.8 µM
GI50 (NCI-H522 lung): 26.9 µM
TGI (NCI-H522 lung): 94.1 µM
GI50 (NCI-H460 lung): 15.6 µM
TGI (NCI-H460 lung): 43.4 µM
GI50 (MALME-3M melanoma): 20 µM
TGI (MALME-3M melanoma): 52.9 µM
GI50 (RXF 393 renal): 5.2 µM
TGI (RXF 393 renal): 38 µM
GI50 (SK-MEL-28 melanoma): 23.2 µM
TGI (SK-MEL-28 melanoma): 92.9 µM
GI50 (EKVX NSCLC): 14.7 µM
TGI (EKVX NSCLC): > 100 µM
GI50 (K-562 leukemia): 14.4 µM
TGI (K-562 leukemia): > 100 µM
GI50 (HT29 colon): 26.7 µM
TGI (HT29 colon): > 100 µM
GI50 (IGROV1 ovarian): 29 µM
TGI (IGROV1 ovarian): > 100 µM
GI50 (OVCAR-5 ovarian): 17.7 µM
TGI (OVCAR-5 ovarian): 56.3 µM
GI50 (HCT-15 colon): 17.1 µM
TGI (HCT-15 colon): 67.9 µM
GI50 (MCF7 breast): 14 µM
TGI (MCF7 breast): 39.6 µM
GI50 (COLO 205 colon): 17.9 µM
TGI (COLO 205 colon): 41.8 µM
GI50 (T-47D breast): 18.5 µM
TGI (T-47D breast): > 100 µM
GI50 (A549 NSCLC): 23.1 µM
TGI (A549 NSCLC): > 100 µM
GI50 (HCT-116 colon): 16.9 µM
TGI (HCT-116 colon): 46.8 µM
GI50 (OVCAR-3 ovarian): 19 µM
TGI (OVCAR-3 ovarian): 92.6 µM
GI50 (SNB-19 CNS): 23.5 µM
TGI (SNB-19 CNS): > 100 µM
GI50 (SK-MEL-2 melanoma): 17.5 µM
TGI (SK-MEL-2 melanoma): 40.8 µM
GI50 (UO-31 renal): 19.9 µM
TGI (UO-31 renal): > 100 µM
GI50 (786-0 renal): 19.2 µM
TGI (786-0 renal): 76.5 µM
GI50 (SW-620 colon): 28.2 µM
TGI (SW-620 colon): > 100 µM
GI50 (NCI-H23 lung): 23.5 µM
TGI (NCI-H23 lung): > 100 µM
GI50 (UACC-62 melanoma): 9.74 µM
TGI (UACC-62 melanoma): 24.4 µM
GI50 (MDA-MB-231 breast): 10.1 µM
TGI (MDA-MB-231 breast): 27.2 µM
GI50 (HS 578T breast): 14.2 µM
TGI (HS 578T breast): > 100 µM
GI50 (SK-MEL-5 melanoma): 13.2 µM
TGI (SK-MEL-5 melanoma): 26.7 µM
GI50 (SR leukemia): 20.9 µM
TGI (SR leukemia): > 100 µM
GI50 (LOX IMVI melanoma): 14.4 µM
TGI (LOX IMVI melanoma): 30.3 µM
GI50 (SF-268 CNS): 18.1 µM
TGI (SF-268 CNS): > 100 µM
GI50 (SK-OV-3 ovarian): 49.2 µM
TGI (SK-OV-3 ovarian): > 100 µM
GI50 (HOP-62 NSCLC): 36.5 µM
TGI (HOP-62 NSCLC): > 100 µM
GI50 (UACC-257 melanoma): 24.1 µM
TGI (UACC-257 melanoma): > 100 µM
GI50 (MDA-MB-468 breast): 12.1 µM
TGI (MDA-MB-468 breast): 44.5 µM
GI50 (HL-60(TB) leukemia): 14.2 µM
TGI (HL-60(TB) leukemia): 79.7 µM
GI50 (BT-549 breast): 23.3 µM
TGI (BT-549 breast): > 100 µM
GI50 (OVCAR-4 ovarian): 27.2 µM
TGI (OVCAR-4 ovarian): > 100 µM
GI50 (PC-3 prostate): 5.72 µM
TGI (PC-3 prostate): > 100 µM
GI50 (SN12C renal): 26.1 µM
TGI (SN12C renal): > 100 µM
GI50 (ACHN renal): 23.6 µM
TGI (ACHN renal): > 100 µM
GI50 (HCC-2998 colon): 17.1 µM
TGI (HCC-2998 colon): 49.6 µM
GI50 (M14 melanoma): 17.8 µM
TGI (M14 melanoma): 44.7 µM
GI50 (DU-145 prostate): 34 µM
TGI (DU-145 prostate): > 100 µM
GI50 (SNB-75 CNS): 20.3 µM
TGI (SNB-75 CNS): > 100 µM
GI50 (MOLT-4 leukemia): 6.78 µM
TGI (MOLT-4 leukemia): > 100 µM
GI50 (SF-295 CNS): 11.1 µM
TGI (SF-295 CNS): 32 µM

COc1ccc(C(=O)NNc2nc(Cl)nc(N3CCN(C(c4ccccc4)c4ccccc4)CC3)n2)cc1
GI50 (MDA-MB-468 breast): 2.5 µM
TGI (MDA-MB-468 breast): 47.5 µM

O=C([O][Sn]([O]C(=O)c1ccccn1)([c]1ccccc1)[c]1ccccc1)c1ccccn1
GI50 (MDA-MB-468 breast): 1.45 µM
TGI (MDA-MB-468 breast): 2.76 µM

Cc1nn2c(/C=C3/C(=O)Nc4cc(Cl)ccc43)c(-c3ccccc3)nc2s1
GI50 (MDA-MB-468 breast): 27.7 µM
TGI (MDA-MB-468 breast): > 100 µM

Cc1ccc(S(=O)(=O)c2nc(-c3ccccc3)oc2S(C)=O)cc1 (stereo not drawn)
GI50 (MDA-MB-468 breast): 0.52 µM
TGI (MDA-MB-468 breast): 2.15 µM

O=c1[nH]c2nc(NC3CCOCC3)ncc2cc1Oc1ccc(F)cc1F
GI50 (MDA-MB-468 breast): > 25 µM
TGI (MDA-MB-468 breast): > 25 µM

C=CC(=O)Nc1cc(N2CCN(CC)CC2)ccc1Nc1cc(N(C)C(=O)Nc2c(Cl)c(OC)cc(OC)c2Cl)ncn1
GI50 (MDA-MB-468 breast): 1.68 µM
TGI (MDA-MB-468 breast): 4.16 µM
